Results from patent US10941152B2, “Pyrazole compounds as modulators of FSHR and uses thereof” (TOCOPHERX, INC., priority 2014, dated 2021).

What was measured:
FSHR = target: T1, FSHR (Homo sapiens, UniProt P23945); experiment: EC50 of cyclic AMP production in CHO FSHR cells + EC20 FSH (Assay A); type: cell-based; conditions: cyclic AMP production in CHO FSHR cells + EC20 FSH (0.265 pM), HTRF
T1 construct: expressed in transfected cells; host or cells: CHO (Cho-FSHR-LUC-1-1-43)
T1 sequence (P23945 18-695): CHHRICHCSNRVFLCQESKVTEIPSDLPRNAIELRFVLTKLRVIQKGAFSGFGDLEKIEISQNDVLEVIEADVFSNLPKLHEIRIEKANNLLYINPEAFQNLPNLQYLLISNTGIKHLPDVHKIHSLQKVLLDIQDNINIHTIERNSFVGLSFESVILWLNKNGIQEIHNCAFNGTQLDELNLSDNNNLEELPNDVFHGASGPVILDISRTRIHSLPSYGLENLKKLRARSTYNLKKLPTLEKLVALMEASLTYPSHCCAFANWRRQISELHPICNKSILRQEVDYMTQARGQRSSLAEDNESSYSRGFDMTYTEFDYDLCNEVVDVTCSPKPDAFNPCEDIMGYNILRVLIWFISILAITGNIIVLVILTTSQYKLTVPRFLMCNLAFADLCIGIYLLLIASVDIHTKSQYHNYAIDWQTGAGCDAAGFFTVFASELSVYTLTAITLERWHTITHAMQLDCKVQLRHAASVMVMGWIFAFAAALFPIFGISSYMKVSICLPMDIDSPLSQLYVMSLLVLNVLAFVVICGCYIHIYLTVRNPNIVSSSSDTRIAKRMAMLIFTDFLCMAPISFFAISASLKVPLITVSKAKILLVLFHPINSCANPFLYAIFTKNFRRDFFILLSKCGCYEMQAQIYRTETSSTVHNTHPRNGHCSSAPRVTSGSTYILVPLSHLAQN
Method in brief: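 cAMP was detected by HTRF as the 665/620 nm ratio. The CHO-FSHR cells had first been exposed for 1 h at 37° C to test compound together with 0.265 pM FSH (EC20) and 200 μM IBMX. Responses are given as percent of the FSH standard maximum.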

[1] = target: T2, follicle-stimulating hormone (FSH) receptor (Rattus norvegicus, UniProt P20395); experiment: Rat granulosa EC50 FSH (Assay B); type: cell-based
T2 construct: endogenous in cells; host or cells: rat granulosa cells
T2 sequence (P20395 18-692): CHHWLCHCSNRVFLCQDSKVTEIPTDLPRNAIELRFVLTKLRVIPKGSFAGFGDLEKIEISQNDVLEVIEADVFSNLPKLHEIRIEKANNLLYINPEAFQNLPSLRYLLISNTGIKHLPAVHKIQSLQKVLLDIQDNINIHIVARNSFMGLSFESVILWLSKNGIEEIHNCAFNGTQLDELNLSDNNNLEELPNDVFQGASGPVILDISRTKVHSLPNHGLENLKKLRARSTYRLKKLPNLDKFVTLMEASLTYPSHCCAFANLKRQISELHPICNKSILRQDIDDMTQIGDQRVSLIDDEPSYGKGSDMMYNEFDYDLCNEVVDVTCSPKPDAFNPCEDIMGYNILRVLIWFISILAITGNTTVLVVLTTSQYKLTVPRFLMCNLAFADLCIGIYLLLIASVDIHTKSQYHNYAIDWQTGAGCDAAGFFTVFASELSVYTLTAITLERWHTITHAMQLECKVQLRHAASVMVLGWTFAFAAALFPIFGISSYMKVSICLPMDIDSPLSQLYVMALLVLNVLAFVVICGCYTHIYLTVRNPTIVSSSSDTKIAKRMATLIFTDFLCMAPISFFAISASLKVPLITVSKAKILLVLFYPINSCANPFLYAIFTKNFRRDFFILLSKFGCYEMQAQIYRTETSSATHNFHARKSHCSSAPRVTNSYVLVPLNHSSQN
Protocol: Example 25. Rat granulosa EC50 FSH (Assay B)
The assay was performed pursuant to the teaching of Yanofsky et al. (2006) Allosteric activation of the follicle-stimulating hormone (FSH) receptor by selective, nonpeptide agonists (JBC 281(19): 13226-13233, which is incorporated by reference in the disclosure of the invention).

Row | Structure (SMILES) | EC50 (FSHR) [nM] | EC50 [1] [nM]
1 | COc1cc2c(cc1-c1cc(F)cc(C(N)=O)c1)-c1c(c(C(=O)N(C)C(C)(C)C)nn1-c1cc(Cl)cc(Cl)c1)CO2 [Compound 97, N-tert-butyl-8-(3-carbamoyl-5-fluorophenyl)-1-(3,5-dichlorophenyl)-7-methoxy-N-methyl-1,4-dihydrochromeno[4,3-c]pyrazole-3-carboxamide] | < 10 | < 10
2 | COc1cc2c(cc1-c1ccccc1C(N)=O)-c1c(c(C(=O)N(C)C(C)(C)C)nn1-c1cc(Cl)cc(Cl)c1)CO2 [Compound 98, N-tert-butyl-8-(2-carbamoylphenyl)-1-(3,5-dichlorophenyl)-7-methoxy-N-methyl-1,4-dihydrochromeno[4,3-c]pyrazole-3-carboxamide] | < 10 | 101 to 500
3 | COc1cc2c(cc1-c1cnn(CC(N)=O)c1)-c1c(c(C(=O)N3CCOCC3(C)C)nn1-c1cc(F)cc(F)c1)CO2 [Compound 99, 2-(4-(1-(3,5-difluorophenyl)-3-(3,3-dimethylmorpholine-4-carbonyl)-7-methoxy-1,4-dihydrochromeno[4,3-c]pyrazol-8-yl)-1H-pyrazol-1-yl)acetamide] | < 10 | 10 to 100
4 | CNC(=O)c1cc(-c2cc3c(cc2OC)OCc2c(C(=O)N(C)C(C)(C)C)nn(-c4cc(F)cc(F)c4)c2-3)cnc1N [Compound 100, 8-(6-amino-5-(methylcarbamoyl)pyridin-3-yl)-N-tert-butyl-1-(3,5-difluorophenyl)-7-methoxy-N-methyl-1,4-dihydrochromeno[4,3-c]pyrazole-3-carboxamide] | < 10 | 10 to 100
5 | COc1cc2c(cc1-c1cncc(C(=O)N(C)C)c1)-c1c(c(C(=O)N3CCOCC3(C)C)nn1-c1cc(Cl)cc(Cl)c1)CO2 [Compound 101, 5-(1-(3,5-dichlorophenyl)-3-(3,3-dimethylmorpholine-4-carbonyl)-7-methoxy-1,4-dihydrochromeno[4,3-c]pyrazol-8-yl)-N,N-dimethylnicotinamide] | < 10 | 10 to 100
6 | COc1cc2c(cc1-c1ccccn1)-c1c(c(C(=O)N3CCC(O)CC3(C)C)nn1-c1cc(Cl)cc(Cl)c1)CO2 (stereo not drawn) [Compound 102, (1-(3,5-dichlorophenyl)-7-methoxy-8-(pyridin-2-yl)-1,4-dihydrochromeno[4,3-c]pyrazol-3-yl)(4-hydroxy-2,2-dimethylpiperidin-1-yl)methanone] | < 10 | 10 to 100
7 | COc1cc2c(cc1-c1cncc(C(N)=O)c1)-c1c(c(C(=O)N(C)C(C)(C)C(N)=O)nn1-c1cc(F)cc(F)c1)CO2 [Compound 104, N-(1-amino-2-methyl-1-oxopropan-2-yl)-8-(5-carbamoylpyridin-3-yl)-1-(3,5-difluorophenyl)-7-methoxy-N-methyl-1,4-dihydrochromeno[4,3-c]pyrazole-3-carboxamide] | 10 to 100 | > 500
8 | COc1cc2c(cc1-c1cncc(C#N)c1)-c1c(c(C(=O)N(C)C(C)(C)C#N)nn1-c1cc(F)cc(F)c1)CO2 [Compound 105, N-(2-cyanopropan-2-yl)-8-(5-cyanopyridin-3-yl)-1-(3,5-difluorophenyl)-7-methoxy-N-methyl-1,4-dihydrochromeno[4,3-c]pyrazole-3-carboxamide] | < 10 | 10 to 100
9 | COc1cc2c(cc1-c1ccn(C)n1)-c1c(c(C(=O)N(C)C(C)(C)C#N)nn1-c1cc(F)cc(F)c1)CO2 [Compound 106, N-(2-cyanopropan-2-yl)-1-(3,5-difluorophenyl)-7-methoxy-N-methyl-8-(1-methyl-1H-pyrazol-3-yl)-1,4-dihydrochromeno[4,3-c]pyrazole-3-carboxamide] | 10 to 100 | > 500
10 | COc1cc2c(cc1-c1cncc(C(=O)O)c1)-c1c(c(C(=O)N(C)C(C)(C)C#N)nn1-c1cc(F)cc(F)c1)CO2 [Compound 107, 5-(3-((2-cyanopropan-2-yl)(methyl)carbamoyl)-1-(3,5-difluorophenyl)-7-methoxy-1,4-dihydrochromeno[4,3-c]pyrazole-8-yl)nicotinic acid] | < 10 | 101 to 500
11 | COc1cc2c(cc1-c1cncc(CO)c1)-c1c(c(C(=O)N(C)C(C)(C)C#N)nn1-c1cc(Cl)cc(Cl)c1)CO2 [Compound 108, N-(2-cyanopropan-2-yl)-1-(3,5-dichlorophenyl)-8-(5-(hydroxymethyl)pyridin-3-yl)-7-methoxy-N-methyl-1,4-dihydrochromeno[4,3-c]pyrazole-3-carboxamide] | < 10 | 10 to 100
12 | COc1cc2c(cc1-c1cc(C(N)=O)ncc1F)-c1c(c(C(=O)N(C)C(C)(C)C#N)nn1-c1cc(F)cc(F)c1)CO2 [Compound 109, 8-(2-carbamoyl-5-fluoropyridin-4-yl)-N-(2-cyanopropan-2-yl)-1-(3,5-difluorophenyl)-7-methoxy-N-methyl-1,4-dihydrochromeno[4,3-c]pyrazole-3-carboxamide] | < 10 | 10 to 100
13 | COc1cc2c(cc1-c1cncc(C(N)=O)c1)-c1c(c(C(=O)N(C)C(C)(C)C#N)nn1-c1cc(F)cc(Cl)c1)CO2 [Compound 110, 8-(5-carbamoylpyridin-3-yl)-1-(3-chloro-5-fluorophenyl)-N-(2-cyanopropan-2-yl)-7-methoxy-N-methyl-1,4-dihydrochromeno[4,3-c]pyrazole-3-carboxamide] | < 10 | 10 to 100
14 | COc1cc2c(cc1-c1nccc(C(N)=O)n1)-c1c(c(C(=O)N(C)C(C)(C)C)nn1-c1cc(Cl)cc(Cl)c1)CO2 [Compound 111, N-tert-butyl-8-(4-carbamoylpyrimidin-2-yl)-1-(3,5-dichlorophenyl)-7-methoxy-N-methyl-1,4-dihydrochromeno[4,3-c]pyrazole-3-carboxamide] | 10 to 100 | 101 to 500
15 | COc1cc2c(cc1-c1nccnc1C#N)-c1c(c(C(=O)N(C)C(C)(C)C)nn1-c1cc(Cl)cc(Cl)c1)CO2 [Compound 112, N-tert-butyl-8-(3-cyanopyrazin-2-yl)-1-(3,5-dichlorophenyl)-7-methoxy-N-methyl-1,4-dihydrochromeno[4,3-c]pyrazole-3-carboxamide] | 10 to 100 | 101 to 500
16 | COc1cc2c(cc1-c1cc(C(N)=O)ccn1)-c1c(c(C(=O)N(C)C(C)(C)C)nn1-c1cc(Cl)cc(Cl)c1)CO2 [Compound 113, N-tert-butyl-8-(4-carbamoylpyridin-2-yl)-1-(3,5-dichlorophenyl)-7-methoxy-N-methyl-1,4-dihydrochromeno[4,3-c]pyrazole-3-carboxamide] | < 10 | 10 to 100
17 | COc1cc2c(cc1-c1cc(C(N)=O)ncn1)-c1c(c(C(=O)N(C)C(C)(C)C)nn1-c1cc(Cl)cc(Cl)c1)CO2 [Compound 114, N-tert-butyl-8-(6-carbamoylpyrimidin-4-yl)-1-(3,5-dichlorophenyl)-7-methoxy-N-methyl-1,4-dihydrochromeno[4,3-c]pyrazole-3-carboxamide] | 10 to 100 | 101 to 500
18 | COc1cc(C(N)=O)cc(-c2cc3c(cc2OC)OCc2c(C(=O)N(C)C(C)(C)C)nn(-c4cc(Cl)cc(Cl)c4)c2-3)n1 [Compound 115, N-tert-butyl-8-(4-carbamoyl-6-methoxypyridin-2-yl)-1-(3,5-dichlorophenyl)-7-methoxy-N-methyl-1,4-dihydrochromeno[4,3-c]pyrazole-3-carboxamide] | < 10 | 101 to 500
